Consider 2 compounds from US20160263048A1, “BIOADHESIVE POLYMER-BASED CONTROLLED-RELEASE SYSTEMS, PRODUCTION PROCESS AND CLINICAL USES THEREOF” (priority 2010, published 2016).

A short description of one data set: Solubility in water. As to conditions: molar ratio TrA/HPβCD 1:10. Type of data set: physicochemical. An excerpt:
Currently used cyclodextrins are preferably semi-synthetic derivatives of β-cyclodextrin, soluble in highly polar organic solvents, marketed by Roquette or Wacker such as hydroxypropyl-βCD (HPβCD) and Methyl-βCD. The HPβCD marketed by Roquette under the name Kleptose® HP is an amorphous white powder, with a solubility in water higher than 1 g/ml. Further to this, it has a good stability both in acidic and in basic milieu and can be used to administrate drugs both by injection and by the oral route. The second one, under the name Kleptose® Crysmeb® exp, is a mixture of cyclodextrins which contain from one to seven methyl groups. Crysmeb® has an average of 4 methyl groups for one cyclodextrin molecule and has an average molecular weight of 1191 dalton. It is a white powder, easily soluble in water and its solubility grows with the temperature, and, in addition, it is very stable both in and acidic and in basic milieus.
Such a capability was tested for the buccal release of triamcinolone acetonide (TrA), a corticosteroid drug poorly soluble in water. According to the European Pharmacopeia, TrA is a drug that is practically not soluble in water, since its solubility in this vehicle is about 0.02 mg/ml. The presence of HPβCD in the film enhances TrA solubility by 600 fold, i.e., to about […] (molar ratio TrA/HPβCD 1:10). […]

The conditions of data set [1]: cited from earlier work.

Like-named read-outs stand apart in the source and are kept apart here.

Turning to `CC1(C)O[C@@H]2C[C@H]3[C@@H]4CCC5=CC(=O)C=C[C@]5(C)[C@@]4(F)[C@@H](O)C[C@]3(C)[C@]2(C(=O)CO)O1` [TrA, triamcinolone acetonide], the “enhancement of TrA solubility by presence of HPβCD” value in the data set “Solubility in water” worked out at 600 fold. Further, the “TrA solubility in presence of HPβCD” value in the data set “Solubility in water” (no further enhancement at higher HPβCD concentration) was “about 4 % w/v”. Moreover, the solubility in water entry in data set [1] (according to the European Pharmacopeia) is on record as “about 0.02 mg/ml”.
As for hydroxypropyl-βCD [HPβCD], the solubility in water entry in data set [1] (Kleptose® HP marketed by Roquette) is on record as “higher than 1 g/ml”.
